Measured values as given in patent publication US5484803A, “Transcutaneous in vivo activation of photosensitive agents in blood” (priority 1995, dated 1996).

Assays:
[1] = BPD concentration in plasma of mice injected with L1210 cells; assay type: in vivo, Balb/c mice; conditions: for BPD Concentration in Plasma: Balb/c mice injected with L1210 cells; for BPD Concentration in Plasma, % of dark control: L1210
Description: Determination of BPD Concentration in Plasma: Plasma samples were obtained by centrifugation of blood collected from mice and stored frozen at -20° C. until assessment. The concentration of BPD in the samples was determined by fluorometry using a Jasco Model FP-770 (Japan Spectroscopic Co.) spectrofluorometer and a microcuvette (Far UV Quartz Cell, Starna Cells Inc.). Excitation and emission wavelengths were 439 and 699 nm, respectively. Plasma samples were diluted 20-fold with PBS containing 1% Triton® X-100 immediately before fluorescence was determined. BPD standards were prepared in 5% mouse plasma in PBS with 1% Triton® X-100. Under these conditions the relationship between the concentration of BPD and units of fluorescence was linear (correlation coefficient >0.99) for concentrations between 0.1 ng/ml and 1 μg/ml. The limit of detection was below 0.1 ng/ml sample which corresponded to 2 ng/ml plasma. […] The 699 nm fluorescence peak of BPD was virtually free from any interference.
Male mature DBA/2 and Balb/c mice were injected intravenously with P815 and L1210 cells, respectively, preincubated for 1 hour with BPD (liposomal) at 100 ng/ml. Immediately before animal injection, an additional 2 μg of BPD was added to the syringes containing cells. […] One group of mice (shaved and depilated) was exposed immediately to red light (600-900 nm) in the light box for 1.5 hours (162 J/cm^2); the other group was kept in the dark as the control.
Immediately after exposure to light, blood samples were obtained by a heart puncture under halothane anesthesia. The concentration of BPD in plasma of light-exposed and control mice was determined by fluorescence. The number of clonogenic tumor cells in mouse blood was determined by culturing blood samples in culture medium supplemented with 10% bovine serum, using a limiting dilution assay protocol.

[2] = test system: Red blood cells; conditions: after the virucidal treatment; cited from earlier work
[3] = test system: mice skin; test: Skin photosensitivity tests (skin and behaviour after double treatment); assay type: in vivo, Balb/c mice
Excerpt: Male Balb/c mice (7-11 weeks old; Charles River, Canada) were used in these studies, unless otherwise specified. Balb/c mice were chosen for the studies because of the lack of pigment in their skin. Shaving and depilation removed the hair very effectively from the entire body except the head. Then, the mouse skin appeared quite transparent. Internal organs, especially dark red organs such as liver and spleen, were visible through the skin. The mice were shaved and depilated with a commercially available depilator (Neet® or Nair®) 5 days before being used in the experiments. Control mice, injected with BPD but not exposed to light, were not shaved. Following injection the mice were kept in the dark for various lengths of time, as described below. Before and after the experiments the mice were kept in an animal facility with 12 hours of light and 12 hours of dark daily. After the experiments, in order to reduce the amount of light reaching the mice, their cages were placed on the lowest shelf with aluminum foil placed above them.
The light box was custom built at a workshop at the University of British Columbia. It was composed of two layers of 14 75 W tungsten-halogen reflector bulbs (General Electric), which illuminated the treatment area from the top and from the bottom. Light was filtered by 1) a set of filters comprising yellow and red plastic films which absorbed most of the light at wavelengths shorter than 600 nm and 2) 15 mm thick water filters which absorbed light above 900 nm. Cooling was provided by a steady flow of cold water in the water filters and by a set of 5 fans. The light intensity was measured by an IL 1350 Photometer (International Light).
The intensity of light delivered by the top and bottom sets of bulbs was not uniform. The bottom set delivered 33-40 mW/cm^2 as measured at floor level of the exposure chamber, while the top set delivered 27-33 mW/cm^2 as measured at the skin surface of the backs of the animals. The range described resulted from inconsistent influence at the horizontal plane of irradiation. In addition, mice moved about during light exposure, so that at various times different parts of their skin received different amounts of light. Therefore, the doses delivered to the surface of mice skin must be approximated and the calculations have been based on an intensity of 30 mW/cm^2.
(§1) Six Balb/c mice (22±1 g weight) were prepared as described above. Five mice were injected twice (24 hour interval) with BPD from DMSO stock (not liposomal BPD) and exposed to light 1 hour after the injection. One mouse was not injected but was exposed to light (light-only control). During the first treatment the mice were injected with 15 μg BPD/mouse in 200 μl of PBS. During the second treatment the mice were injected with 20 μg BPD/mouse (0.9 mg/kg). A single mouse was used as a control for both treatments.
Immediately post-injection (on both occasions) the animals were kept for 1 hour in the dark and then were placed in individual plastic containers (9×4×5 cm), which were placed in the light box and exposed to light. The individual mice were removed from the light box at different intervals: 15, 30, 45, 60 and 75 min, respectively. The light doses delivered at the surface of the skin were 27, 54, 81, 108 and 135 J/cm^2, respectively. On the second occasion the same light doses were used; however, mice receiving higher light doses on day 1 received lower doses on day 2. The control mouse was exposed to light for 60 min on both occasions. […]

[4] = test system: mice skin; test: Skin photosensitivity and skin changes, transcutaneous activation study; assay type: in vivo
[5] = test system: mouse blood; test: Blood cell morphology 2 weeks post-treatment; assay type: in vivo, Balb/c mice
Description: Blood Tests: Blood was drawn into syringes containing 50 μl of heparin (1000 units/ml saline). Blood samples (0.45 ml) from at least 1 mouse per time point were sent to the Diagnostic Laboratory at the University Hospital, University of British Columbia site, for analysis by a Coulter Counter. Blood morphology was determined on blood films prepared from selected samples by a laboratory technologist.
as §1
Immediately post-injection (on both occasions) the animals were kept for 1 hour in the dark and then were placed in individual plastic containers (9×4×5 cm), which were placed in the light box and exposed to light. The individual mice were removed from the light box at different intervals: 15, 30, 45, 60 and 75 min, respectively. The light doses delivered at the surface of the skin were 27, 54, 81, 108 and 135 J/cm^2, respectively. On the second occasion the same light doses were used; however, mice receiving higher light doses on day 1 received lower doses on day 2. The control mouse was exposed to light for 60 min on both occasions. During light exposure, the mice were constantly observed for signs of discomfort or itching. After the second light exposure, the mice were observed daily for a period of 2 weeks for appearance of the skin and general pattern of behavior.
Two weeks post-treatment blood samples were obtained from each mouse by a heart puncture, under halothane anesthesia. Then the mice were sacrificed and autopsied. Their spleen, liver and kidneys were weighed.

In the case of “benzoprophyrin derivative monoacid ring A [BPD]”, the Percent photodegraded ([1]; Balb/c, L1210, 162 J/cm^2) is reported as 59%, the “BPD Concentration in Plasma” value ([1]; Dark control) is reported as 126.45 ng/mL and the “BPD Concentration in Plasma, % of dark control” value ([1]; Dark control) is reported as 100%. The “BPD Concentration in Plasma” value ([1]; Light exposed (162 J/cm^2)) was 52.23 ng/mL, the “BPD Concentration in Plasma, % of dark control” value ([1]; Light exposed (162 J/cm^2)) was 41% and the “red blood cell viability” value [2] was “appeared viable”. The “signs of skin photosensitization” value ([3]; 0.9 mg/kg, red light 1 hour after injection, 27 to 135 J/cm^2, two weeks) was “did not show any signs of skin photosensitization”, the “gross changes in skin” value ([3]; Balb/c, i.e. 15 then 20 μg BPD/mouse (DMSO stock), light 27-135 J/cm^2, immediately post-exposure and two weeks) was “No gross changes were observed in mice skin” and the “effect of the same light dose at lower plasma levels” value ([3]; as demonstrated in Example 1) was “apparently harmless”. The “behaviour / discomfort under the light” value ([3]; both days of treatment, 27-135 J/cm^2, except occasional scratching) was “behaved normally under the light, without any signs of discomfort”, the behavioral changes ([3]; two weeks after double treatment) was “No behavioral changes were observed” and the skin photosensitivity ([4]; 0.9 mg/kg liposomal BPD, 54-162 J/cm^2) was “did not cause skin photosensitivity”. The “changes of the skin” value ([4]; immediately or during the 2 week post-exposure period, 0.9 mg/kg, 30 mW/cm^2) was “no changes of the skin were observed”, the Monocytes ([5]; mouse 1, light 27 then 135 J/cm^2) was 1 % WBC and the Granulocytes ([5]; mouse 1, light 27 then 135 J/cm^2, normal 12-15) was 9 % WBC. For the same substance, the Lymphocytes ([5]; mouse 1, light 27 then 135 J/cm^2, normal 65-85) was 90 % WBC, the Monocytes ([5]; mouse 2, light 54 then 108 J/cm^2) was 1 % WBC and the Granulocytes ([5]; mouse 2, light 54 then 108 J/cm^2, normal 12-15) was 11 % WBC. The Lymphocytes ([5]; mouse 2, light 54 then 108 J/cm^2, normal 65-85) was 88 % WBC, the Monocytes ([5]; mouse 3, light 81 then 81 J/cm^2) was 3 % WBC and the Granulocytes ([5]; mouse 3, light 81 then 81 J/cm^2, normal 12-15) was 19 % WBC. It also gave a Lymphocytes ([5]; mouse 3, light 81 then 81 J/cm^2, normal 65-85) of 78 % WBC, a Monocytes ([5]; mouse 4, light 108 then 54 J/cm^2) of 2 % WBC and a Granulocytes ([5]; mouse 4, light 108 then 54 J/cm^2, normal 12-15) of 36 % WBC. The Lymphocytes ([5]; mouse 4, light 108 then 54 J/cm^2, normal 65-85) was 62 % WBC, the Monocytes ([5]; mouse 5, light 135 then 27 J/cm^2) was 1 % WBC and the Granulocytes ([5]; mouse 5, light 135 then 27 J/cm^2, normal 12-15) was 7 % WBC. For the same substance, the Lymphocytes ([5]; mouse 5, light 135 then 27 J/cm^2, normal 65-85) was 92 % WBC.
